Where two headings read alike, the source gives them in different places. Marks after values point to notes of the source that are not given here.
What was measured:
A375 melanoma cells = tested on: A375 melanoma cells; design: method as in Wong et al., 2020; details: ref Wong et al., 2020; cited from earlier work
[1] = tested on: asexual blood stage P. falciparum K1 (multidrug resistant); details: ref Coertzen et al., 2018, Wong et al., 2019, cited from earlier work
tumour cell lines = tested on: tumour cell lines; design: method as in earlier work; details: range over cell lines; ref Gravett et al., 2011; Hooft van Huijsduijnen et al., 2013; Dwivedi et al., 2015; Wu et al., 2018; Wong et al., 2020; read-out: IC50 against tumour cell lines; cited from earlier work
[2] = tested on: late stage IV-V P. falciparum NF54 gametocytes; design: method as in Coertzen et al., 2018, Wong et al., 2019; details: ref Coertzen et al., 2018, Wong et al., 2019, cited from earlier work
[3] = tested on: asexual blood stage P. falciparum W2 (multidrug resistant); experiment: SYBR Green I proliferation assay, asexual blood stage Pf W2; format: cell-based, Plasmodium falciparum
Experimental: (§1) In vitro cultivation of asexual and gametocyte P. falciparum parasites: P. falciparum asexual blood stage parasites were cultivated in human erythrocytes in RPMI-1640 media supplemented with AlbuMax II under sterile conditions and in a hypoxic environment (90% N2, 5% CO2, and 5% O2) at 37°C as described previously ([Coertzen et al., 2018]; [Wong et al., 2019]). Gametocytes were produced from asexual blood stage parasites in a stage-specific manner through induction of cellular stress as described previously ([Reader et al., 2015]; [Coertzen et al., 2018]; [Wong et al., 2019]; [Reader et al., 2022]).
(§2) DHA, artesunate, artemether, chloroquine (CQ), and methylene blue (MB) were used as reference drugs. […] Dose-responses were determined using a 2-fold serial drug dilution on in vitro 95% ring-stage intraerythrocytic Pf parasites (1% parasitemia, 1% hematocrit) at 37°C under 90% N2, 5% CO2, and 5% O2 atmospheric conditions, detecting SYBR green I fluorescence as a marker for parasite proliferation following a 96 h drug treatment ([Smilkstein et al., 2004]; [Verlinden et al., 2011]). Activity against the Pf drug-sensitive NF54 strain and the multi drug-resistant K1 (resistant to CQ, quinine, pyrimethamine, and cycloguanil), and W2 (resistant to CQ, quinine, pyrimethamine, and cycloguanil) strains was evaluated. […]

[4] = tested on: asexual blood stage P. falciparum K1 (multidrug resistant); experiment: SYBR Green I proliferation assay, asexual blood stage Pf K1; format: cell-based, Plasmodium falciparum
Experimental: as §1, §2

[5] = tested on: late stage IV-V P. falciparum NF54 gametocytes; experiment: Luciferase reporter gametocytocidal assay, late stage gametocytes; format: cell-based, Plasmodium falciparum; details: for IC50: Plasmodium falciparum; for Fold change preference ratio LG to EG: late vs immature stage gametocytes
Experimental: as §1
Untreated and 5 μM MB-treated immature and late-stage gametocytes were included as positive and negative controls. MB and artemisone were included as internal reference standards. In all cases, an interference assay to eliminate false positives from possible compound interference with the luciferase readout was run in parallel. Unless otherwise indicated, data are from technical triplicates, performed for three biological replicates. Complete dose-response curves are given in the (Supplementary Figures S2A,B).
(§3) Stage-specific activities of celastrol against immature (stage II-III) and late stage (stage IV-V) gametocytes were determined with the luc reporter line as described previously ([Coertzen et al., 2018]; [Wong et al., 2019]). Also included in Table 2 for direct comparison of activities with celastrol are gametocytocidal data for MB, artemisone and the artemisinin derivatives recorded previously ([Coertzen et al., 2018]; [Wong et al., 2019]).

[6] = tested on: immature stage II-III P. falciparum NF54 gametocytes; experiment: Luciferase reporter gametocytocidal assay, immature gametocytes; format: cell-based, Plasmodium falciparum; details: this study
Experimental: as §1
Untreated and 5 μM MB-treated immature and late-stage gametocytes were included as positive and negative controls. MB and artemisone were included as internal reference standards. In all cases, an interference assay to eliminate false positives from possible compound interference with the luciferase readout was run in parallel. […]
as §3

[7] = tested on: drug-sensitive and resistant asexual blood stage Pf; experiment: Asexual blood stage activity over all strains (abstract); format: cell-based; details: Plasmodium falciparum, read-out: IC50 asexual blood stage Pf
Experimental: DHA, artesunate, artemether, chloroquine (CQ), and methylene blue (MB) were used as reference drugs. All assay conditions are as previously described ([Coertzen et al., 2018]; [Wong et al., 2019]). Compound working solutions were prepared from a 10 mM stock solution in 100% (v/v) dimethyl sulfoxide (DMSO; Sigma-Aldrich) in AlbuMAX II supplemented RPMI 1640 medium with a final DMSO concentration of 0.1% (v/v), shown to be nontoxic […] to intraerythrocytic asexual blood stage parasites ([Coertzen et al., 2018]). Dose-responses were determined using a 2-fold serial drug dilution on in vitro 95% ring-stage intraerythrocytic Pf parasites (1% parasitemia, 1% hematocrit) at 37°C under 90% N2, 5% CO2, and 5% O2 atmospheric conditions, detecting SYBR green I fluorescence as a marker for parasite proliferation following a 96 h drug treatment ([Smilkstein et al., 2004]; [Verlinden et al., 2011]). Activity against the Pf drug-sensitive NF54 strain and the multi drug-resistant K1 (resistant to CQ, quinine, pyrimethamine, and cycloguanil), and W2 (resistant to CQ, quinine, pyrimethamine, and cycloguanil) strains was evaluated. […] Data analysis was performed using GraphPad Prism (version 6) software, intra-assay variability was monitored with Z-factors, and acceptable inter-assay reproducibility was determined from the percent coefficient of variation (CV) ([Reader et al., 2015]). […]

[8] = tested on: chloroquine sensitive Pf NF54 strain; details: tritiated hypoxanthine assay; ref Figueiredo et al., 1998; Li et al., 2019; cited from earlier work
[9] = tested on: multidrug resistant Pf K1 strain; details: tritiated hypoxanthine assay; ref Figueiredo et al., 1998; Li et al., 2019; cited from earlier work

SMILES | IC50 (A375 melanoma cells) [µM] | IC50 ([1]; asexual blood stage, SYBR Green I, mean ± SEM) [nM] | RI (resistance index) = IC50 K1/IC50 NF54 [1] | IC50 (tumour cell lines) [µM] | IC50 ([2]; NF54 gametocytes, luciferase, 72 h, mean ± SEM, read-out: Late stage IV-V (luc 72 h) IC50) [nM] | Fold change preference ratio LG to EG ([2]; late vs immature stage gametocytes) | IC50 ([3]; Plasmodium falciparum, W2, 96 h, read-out: IC50 W2) [nM] | RI = IC50 W2/IC50 NF54 ([3]; this study) | IC50 ([4]; Plasmodium falciparum, K1, 96 h, read-out: IC50 K1) [nM] | RI (resistance index) = IC50 K1/IC50 NF54 ([4]; this study) | IC50 ([5]; NF54, abstract, read-out: IC50 late stage Pf NF54 gametocytes) [nM] | IC50 ([5]; NF54 gametocytes, luciferase, 72 h, mean ± SEM, this study, read-out: Late stage IV-V (luc 72 h) IC50) [nM] | Fold change preference ratio LG to EG ([5]; this study) | Fold change preference ratio LG to EG ([5]; this study, listed as celastrol) | IC50 ([6]; Plasmodium falciparum, NF54 gametocytes, luciferase, 48 h, mean ± SEM, read-out: Immature stage II-III (luc 48 h) IC50) [nM] | Fold change preference ratio EG to LG ([6]; immature vs late stage gametocytes) | IC50 [7] [nM] | IC50 [8] [nM] | IC50 [9] [nM]
C[C@H]1[C@H](N2CCS(=O)(=O)CC2)O[C@@H]2O[C@@]3(C)CC[C@H]4[C@H](C)CC[C@@H]1[C@@]24OO3 [Artemisone, artemisone] | 95.7 | 1.01 ± 0.19 | 0.85 ^f | 0.26 to 95.7 | 42.4 ± 3.3 | 0.05 | – | – | – | – | – | – | – | – | – | – | – | – | –
CC1=C(O)C(=O)C=C2C1=CC=C1[C@@]2(C)CC[C@@]2(C)[C@@H]3C[C@](C)(C(=O)O)CC[C@]3(C)CC[C@]12C [Celastrol, celastrol] | – | – | – | – | – | – | 500 ± 100 | 0.61 | 700 ± 100 | 0.85 | 280 | 282 ± 96.2 | 4.1 | approximately 4 | 1160 | 0.2 | 500 to 820 | 564 | 401
